The values that follow come from paper PMC4516231 (Journal of pharmaceutical sciences, 2012).

A short description of data set [1]: Aqueous solubility in distilled–deionized water. Format: physicochemical. The conditions noted are these: for Reduction in solubility: DDW, relative to CDF; for Reduction in solubility / Solubility in DDW: 37°C; for Solubility in DDW: distilled–deionized water, 24 h.
A further data set in a line: Tissue. It counts as in vitro ADME, rabbit. The conditions noted are these: relative to parent CDF.

Molecules are shown by their SMILES. Values after ≈ are worked out from the molar mass of the structure shown.

For `CCCCCCOP1(=O)COC(Cn2ccc(N)nc2=O)CO1` (stereo not drawn) [C6-cCDF, C6-cyclic Cidofovir], in data set [1], the Reduction in solubility result is on record as “about 56 fold” and the “Solubility in DDW” value stood at 1.27 ± 0.48 mg/mL (≈ 3.68 mM).

For the compound `CCCCCCCCCCCCOP1(=O)CO[C@@H](Cn2ccc(N)nc2=O)CO1` (stereo partly drawn) [C12-cCDF, C12-cyclic Cidofovir], in data set [1], the Reduction in solubility is about 74 fold and the “Solubility in DDW” value came to 0.95 ± 0.37 mg/mL (≈ 2.21 mM).

One may read the solubility as how much of the substance goes into solution per volume. Regarding `Nc1ccn(C[C@@H](CO)OCP(=O)(O)O)c(=O)n1` [CDF, Cidofovir, reference compound], the concentration in solution in data set [1] (distilled-deionized water) (solubility at 24 h) came to 72.4 ± 3.33 mg/mL (≈ 259 mM). Moreover, in “Tissue”, the “Fold Increase in retina–choroid partition coefficient” value was 1 fold.
